Assay results published in paper PMC9116130 (Biochemical pharmacology, 2020).
Read-outs that look alike come from different tables or passages of the source. Where a SMILES comes first, the peptide text is derived from it. Bridges are numbered along the chain shown (N, C = ends).

Columns and labels:
[1] = target: hNaV1.1 (Homo sapiens, UniProt P35498); assay: Two-electrode voltage-clamp on Xenopus laevis oocytes expressing NaV1.1
[2] = target: rNaV1.2 (Rattus norvegicus, UniProt P04775); assay: Two-electrode voltage-clamp on Xenopus laevis oocytes expressing NaV1.2; conditions: for inhibition at 100 µM: read-out: Maximum % inhibition NaV1.2, peptide at 100 μM
[3] = target: rNaV1.3 (Rattus norvegicus, UniProt P08104); assay: Two-electrode voltage-clamp on Xenopus laevis oocytes expressing NaV1.3
rNaV1.3, sequence (P08104 whole entry): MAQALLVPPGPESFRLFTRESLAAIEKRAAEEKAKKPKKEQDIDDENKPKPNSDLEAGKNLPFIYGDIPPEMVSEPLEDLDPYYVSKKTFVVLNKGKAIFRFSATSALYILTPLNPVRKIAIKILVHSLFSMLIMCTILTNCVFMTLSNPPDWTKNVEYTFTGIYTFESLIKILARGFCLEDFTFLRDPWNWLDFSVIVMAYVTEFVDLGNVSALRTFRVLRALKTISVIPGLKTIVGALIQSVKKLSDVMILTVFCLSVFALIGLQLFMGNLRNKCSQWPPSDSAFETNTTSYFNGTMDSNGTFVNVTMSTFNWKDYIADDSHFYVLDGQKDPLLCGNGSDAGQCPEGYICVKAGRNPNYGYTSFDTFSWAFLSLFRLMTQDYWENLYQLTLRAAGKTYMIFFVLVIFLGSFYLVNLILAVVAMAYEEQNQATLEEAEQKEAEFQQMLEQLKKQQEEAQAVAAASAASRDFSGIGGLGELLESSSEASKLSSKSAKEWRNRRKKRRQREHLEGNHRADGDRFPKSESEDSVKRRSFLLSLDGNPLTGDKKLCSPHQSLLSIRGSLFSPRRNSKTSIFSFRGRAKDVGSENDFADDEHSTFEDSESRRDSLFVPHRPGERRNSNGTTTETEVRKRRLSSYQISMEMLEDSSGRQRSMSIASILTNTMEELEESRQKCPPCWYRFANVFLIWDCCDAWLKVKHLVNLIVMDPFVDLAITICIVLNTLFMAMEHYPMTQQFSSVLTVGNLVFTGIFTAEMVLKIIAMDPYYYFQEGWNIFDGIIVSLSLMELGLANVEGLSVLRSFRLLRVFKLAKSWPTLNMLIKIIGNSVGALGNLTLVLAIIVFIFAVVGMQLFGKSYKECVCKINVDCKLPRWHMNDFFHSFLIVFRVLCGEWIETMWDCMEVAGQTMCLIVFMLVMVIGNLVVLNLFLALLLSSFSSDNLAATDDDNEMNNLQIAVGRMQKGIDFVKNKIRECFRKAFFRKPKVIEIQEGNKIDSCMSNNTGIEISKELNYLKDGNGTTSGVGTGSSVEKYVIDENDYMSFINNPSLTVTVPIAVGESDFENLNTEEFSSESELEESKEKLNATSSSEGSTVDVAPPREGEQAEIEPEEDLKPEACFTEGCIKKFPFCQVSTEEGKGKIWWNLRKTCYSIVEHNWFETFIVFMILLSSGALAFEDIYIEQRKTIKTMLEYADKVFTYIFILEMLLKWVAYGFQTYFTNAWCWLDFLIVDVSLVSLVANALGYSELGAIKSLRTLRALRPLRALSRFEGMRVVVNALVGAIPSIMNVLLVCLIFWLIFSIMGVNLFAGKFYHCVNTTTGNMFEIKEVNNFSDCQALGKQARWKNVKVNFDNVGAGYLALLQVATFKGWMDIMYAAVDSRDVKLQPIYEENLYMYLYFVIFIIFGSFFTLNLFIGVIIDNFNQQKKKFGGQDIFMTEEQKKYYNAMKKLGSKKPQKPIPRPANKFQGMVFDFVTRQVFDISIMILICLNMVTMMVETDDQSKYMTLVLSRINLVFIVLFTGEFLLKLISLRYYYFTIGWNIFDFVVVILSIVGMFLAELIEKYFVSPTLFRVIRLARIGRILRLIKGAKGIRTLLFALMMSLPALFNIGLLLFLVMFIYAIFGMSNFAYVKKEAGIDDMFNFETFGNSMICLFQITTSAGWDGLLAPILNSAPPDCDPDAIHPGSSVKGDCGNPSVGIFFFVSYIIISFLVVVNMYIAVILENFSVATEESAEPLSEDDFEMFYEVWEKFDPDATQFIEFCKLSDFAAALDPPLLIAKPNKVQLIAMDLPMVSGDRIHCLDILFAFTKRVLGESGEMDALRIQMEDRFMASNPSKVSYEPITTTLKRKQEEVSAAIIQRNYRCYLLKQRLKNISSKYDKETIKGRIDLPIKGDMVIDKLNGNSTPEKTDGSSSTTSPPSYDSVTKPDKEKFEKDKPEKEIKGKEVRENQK
rNaV1.3, sequence (Q00954 19-218 partner): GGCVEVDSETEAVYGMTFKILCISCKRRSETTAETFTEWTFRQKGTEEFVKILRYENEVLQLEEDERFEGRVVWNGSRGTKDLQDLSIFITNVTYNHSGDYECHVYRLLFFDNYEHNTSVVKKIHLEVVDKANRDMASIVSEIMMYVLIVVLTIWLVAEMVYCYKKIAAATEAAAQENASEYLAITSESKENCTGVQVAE

[4] = target: rNaV1.4 (Rattus norvegicus, UniProt P15390); assay: Two-electrode voltage-clamp on Xenopus laevis oocytes expressing NaV1.4; conditions: for inhibition at 100 µM: read-out: Maximum % inhibition NaV1.4, peptide at 100 μM
[5] = target: hNaV1.5 (Homo sapiens, UniProt Q14524); assay: Two-electrode voltage-clamp on Xenopus laevis oocytes expressing NaV1.5; conditions: for inhibition at 100 µM: read-out: Maximum % inhibition NaV1.5
[6] = target: mNaV1.6 (Mus musculus, UniProt Q9WTU3); assay: Two-electrode voltage-clamp on Xenopus laevis oocytes expressing NaV1.6; conditions: for inhibition at 100 µM: read-out: Maximum % inhibition NaV1.6, peptide at 100 μM
mNaV1.6, sequence (Q9WTU3 whole entry): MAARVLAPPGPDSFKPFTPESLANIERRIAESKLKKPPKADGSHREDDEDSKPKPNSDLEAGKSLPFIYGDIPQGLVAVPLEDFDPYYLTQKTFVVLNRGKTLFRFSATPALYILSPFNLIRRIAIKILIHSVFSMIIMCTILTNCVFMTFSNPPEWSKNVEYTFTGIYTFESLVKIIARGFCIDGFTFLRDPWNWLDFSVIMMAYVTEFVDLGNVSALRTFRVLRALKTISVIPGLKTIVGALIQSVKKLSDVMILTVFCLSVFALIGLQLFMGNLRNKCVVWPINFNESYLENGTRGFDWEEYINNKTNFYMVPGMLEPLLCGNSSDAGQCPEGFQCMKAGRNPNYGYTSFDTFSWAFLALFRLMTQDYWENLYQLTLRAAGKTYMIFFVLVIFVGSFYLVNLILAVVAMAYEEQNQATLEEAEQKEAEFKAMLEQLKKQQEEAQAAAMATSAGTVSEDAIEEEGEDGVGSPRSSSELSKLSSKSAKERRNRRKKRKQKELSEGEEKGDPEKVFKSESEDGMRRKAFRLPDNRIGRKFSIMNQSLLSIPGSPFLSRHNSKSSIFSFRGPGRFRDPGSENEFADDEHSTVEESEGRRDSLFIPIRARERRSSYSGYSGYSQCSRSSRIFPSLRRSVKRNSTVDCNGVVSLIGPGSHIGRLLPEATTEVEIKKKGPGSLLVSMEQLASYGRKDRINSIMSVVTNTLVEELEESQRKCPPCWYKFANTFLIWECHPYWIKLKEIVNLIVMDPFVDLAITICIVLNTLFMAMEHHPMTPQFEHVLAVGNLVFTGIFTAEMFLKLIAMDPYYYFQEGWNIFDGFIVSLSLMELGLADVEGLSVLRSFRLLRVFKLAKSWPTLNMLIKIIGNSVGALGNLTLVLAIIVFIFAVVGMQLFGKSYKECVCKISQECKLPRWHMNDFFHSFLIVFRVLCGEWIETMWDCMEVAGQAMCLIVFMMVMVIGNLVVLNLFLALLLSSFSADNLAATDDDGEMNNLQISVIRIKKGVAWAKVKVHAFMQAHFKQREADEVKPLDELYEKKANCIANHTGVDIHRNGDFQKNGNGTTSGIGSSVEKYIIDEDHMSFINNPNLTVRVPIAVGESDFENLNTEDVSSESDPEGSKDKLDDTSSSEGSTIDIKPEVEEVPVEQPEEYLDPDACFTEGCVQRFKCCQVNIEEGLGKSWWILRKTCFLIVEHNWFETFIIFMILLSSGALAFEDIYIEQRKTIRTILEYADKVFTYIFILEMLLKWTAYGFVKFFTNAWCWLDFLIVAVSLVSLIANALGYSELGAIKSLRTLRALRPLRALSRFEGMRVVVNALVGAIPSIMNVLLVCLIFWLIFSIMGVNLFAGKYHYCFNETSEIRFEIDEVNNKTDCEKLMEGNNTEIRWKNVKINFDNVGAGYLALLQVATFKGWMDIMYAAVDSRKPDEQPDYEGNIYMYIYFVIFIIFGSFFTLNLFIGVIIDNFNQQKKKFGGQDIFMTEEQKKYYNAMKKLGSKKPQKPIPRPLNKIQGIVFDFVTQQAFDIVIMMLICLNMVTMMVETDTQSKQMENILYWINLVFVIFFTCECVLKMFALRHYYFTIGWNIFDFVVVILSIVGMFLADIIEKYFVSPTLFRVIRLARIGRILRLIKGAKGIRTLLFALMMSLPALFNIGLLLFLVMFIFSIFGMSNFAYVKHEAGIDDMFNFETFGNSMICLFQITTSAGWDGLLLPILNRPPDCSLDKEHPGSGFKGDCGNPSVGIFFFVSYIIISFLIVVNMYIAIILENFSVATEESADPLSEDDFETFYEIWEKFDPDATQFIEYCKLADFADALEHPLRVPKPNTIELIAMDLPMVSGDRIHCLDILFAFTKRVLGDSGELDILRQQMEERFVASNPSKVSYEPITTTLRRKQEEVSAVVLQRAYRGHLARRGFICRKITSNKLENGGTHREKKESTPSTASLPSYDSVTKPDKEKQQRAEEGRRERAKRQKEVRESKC

[7] = target: rNaV1.7 (Rattus norvegicus, UniProt O08562); assay: Two-electrode voltage-clamp on Xenopus laevis oocytes expressing NaV1.7
[8] = target: rNaV1.8 (Rattus norvegicus, UniProt Q62968); assay: Two-electrode voltage-clamp on Xenopus laevis oocytes expressing NaV1.8; conditions: for inhibition at 100 µM: read-out: Maximum % inhibition NaV1.8
[9] = test system: NaV1.2, NaV1.4, NaV1.5 and NaV1.6; conditions: 100 μM

Row | SMILES | IC50 [1] [µM] | IC50 [2] [µM] | inhibition at 100 µM [2] [%] | IC50 [3] [µM] | IC50 [4] [µM] | inhibition at 100 µM [4] [%] | IC50 [5] [µM] | inhibition at 100 µM [5] [%] | IC50 [6] [µM] | inhibition at 100 µM [6] [%] | IC50 [7] [µM] | IC50 [8] [µM] | inhibition at 100 µM [8] [%] | IC50 ([6]; read-out: IC50 NaV1.6 (Table 4), n > 5, ±SD) [µM] | % inhibition, range across NaV1.2, NaV1.4, NaV1.5 and NaV1.6 [9]
1 | C[C@@H]1NC(=O)[C@H](Cc2c[nH]c3ccccc23)NC(=O)[C@H](CCCNC(=N)N)NC(=O)[C@H](CCCNC(=N)N)NC(=O)[C@@H](N)CSSC[C@@H](C(N)=O)NC(=O)[C@H](CCCNC(=N)N)NC(=O)[C@H](CC(N)=O)NC(=O)[C@H](Cc2c[nH]c3ccccc23)NC(=O)[C@H](CCCNC(=N)N)NC1=O [PnCS1, CRRWARWNRC ^*] (H-CRRWARWNRC-NH2; disulfide 1-10) | 0.8 ± 0.3 | 1 ± 0.3 | 97 | 1.1 ± 0.4 | 0.6 ± 0.3 | 94 | 2.8 ± 0.5 | 94 | 0.7 ± 0.3 | 96 | 0.9 ± 0.2 | > 100 | 0 |  | 
2 | C[C@@H]1NC(=O)[C@H](Cc2c[nH]c3ccccc23)NC(=O)[C@H](CCCNC(=N)N)NC(=O)[C@H](CCCNC(=N)N)NC(=O)[C@@H](N)CSSC[C@@H](C(N)=O)NC(=O)[C@H](CCCNC(=N)N)NC(=O)[C@H](CC(N)=O)NC(=O)[C@H](Cc2c[nH]c3ccccc23)NC(=O)[C@H](CCC(=O)O)NC1=O [PnCS1[R6E], CRRWAEWNRC ^*] (H-CRRWAEWNRC-NH2; disulfide 1-10) | > 100 | > 100 | 49 | > 100 | > 100 | 0 | > 100 | 19 | > 100 | 41 | > 100 | > 100 | 0 | > 100 | 
3 | C[C@@H]1NC(=O)[C@H](CCCCN)NC(=O)[C@H](CCCNC(=N)N)NC(=O)[C@H](CCCNC(=N)N)NC(=O)[C@@H](N)CSSC[C@@H](C(N)=O)NC(=O)[C@H](CCCNC(=N)N)NC(=O)[C@H](CC(N)=O)NC(=O)[C@H](Cc2c[nH]c3ccccc23)NC(=O)[C@H](CCCNC(=N)N)NC1=O [PnCS1[W4K], CRRKARWNRC ^*] (H-CRRKARWNRC-NH2; disulfide 1-10) | 0.4 ± 0.2 | 0.5 ± 0.4 | 75 | 1.3 ± 0.4 | 0.7 ± 0.4 | 94 | 2.7 ± 0.5 | 89 | 0.7 ± 0.4 | 92 | 7.4 ± 0.5 | > 100 | 0 |  | 
4 | C[C@@H]1NC(=O)[C@H](Cc2ccc(O)cc2)NC(=O)[C@H](CCCNC(=N)N)NC(=O)[C@H](CCCNC(=N)N)NC(=O)[C@@H](N)CSSC[C@@H](C(N)=O)NC(=O)[C@H](CCCNC(=N)N)NC(=O)[C@H](CC(N)=O)NC(=O)[C@H](Cc2c[nH]c3ccccc23)NC(=O)[C@H](CCCNC(=N)N)NC1=O [PnCS1[W4Y], CRRYARWNRC ^*] (H-CRRYARWNRC-NH2; disulfide 1-10) |  | > 100 | 39 |  | > 100 | 33 | > 100 | 43 | > 100 | 42 |  | > 100 | 0 |  | 33–43%
5 | C[C@@H]1NC(=O)[C@H](Cc2c[nH]c3ccccc23)NC(=O)[C@H](CCCNC(=N)N)NC(=O)[C@H](CCCNC(=N)N)NC(=O)[C@@H](N)CSSC[C@@H](C(N)=O)NC(=O)[C@H](CCCNC(=N)N)NC(=O)[C@H](CC(N)=O)NC(=O)[C@H](CCCCN)NC(=O)[C@H](CCCNC(=N)N)NC1=O [PnCS1[W7K], CRRWARKNRC ^*] (H-CRRWARKNRC-NH2; disulfide 1-10) |  | 2.8 ± 0.5 | 71 |  | 1.7 ± 0.5 | 87 | 3 ± 0.7 | 90 | 8.2 ± 0.6 | 82 |  | > 100 | 0 |  | 
